Results published in patent publication US8216782B2, “PTTG1 as a biomarker for cancer treatment” (Cedars-Sinai Medical Center, priority 2008, dated 2012).

Experiments:
[1] = system: HCT116 PTTG1−/− cells; test: WST-1 cell proliferation assay; type: cell-based; details: for sensitivity of PTTG1−/− cell growth versus WT (WST-1): PTTG1−/− vs WT HCT116 cells; for effect on the WT versus PTTG1−/− difference in response to doxorubicin: 3 μM inhibitor pre-incubation or siRNA, 0.63 μM doxorubicin
Protocol: (§1) FIG. 4 depicts that PTTG1 regulates cell response to Aurora Kinase inhibition, in accordance with an embodiment of the present invention. (A) PTTG1^−/− cell proliferation was attenuated in response to Aurora Kinase A siRNA (mean±S.D., n=3. P<0.05 vs WT). Cells were seeded into 96-well plates, cultured overnight, and then transfected with siRNAs (100 nM). After 72 hours, premixed WST-1 cell proliferation reagent (10 ul) was added to each well. Cells were incubated for a further four hours and shaken thoroughly for one minute before measurement. […] Cells were seeded into 96-well plates, cultured overnight, and then treated with drug as indicated for 48 hours. Viable cells were measured using Premixed WST-1 cell proliferation reagent. (C) Anchorage-dependent colony formation assay was performed as described herein. […] (mean±S.D., n=3. P<0.05 vs WT) (D) Western blot showing that over-expressed PTTG1 rescued PTTG1^−/− sensitivity to Aurora Kinase inhibitor III (12.5 uM) (mean±S.D., n=3. P>0.05 vs WT); PTTG1 knock-down enhanced WT cell sensitivity to Aurora Kinase inhibitor III (12.5 uM) (mean±S.D., n=3. P>0.05 vs PTTG1^−/−). PTTG1^−/−=PTTG1-null or KO cells.
(§2) Cell proliferation was evaluated using WST-1 cell proliferation reagent (obtained from Clontech Laboratories, Inc.; Mountain View, Calif.). Briefly, 90 μl cells were seeded into 96-well plates and cultured overnight, treated with drugs for 48 hours, and 10 μl premixed WST-1 cell proliferation reagent added. Cells were incubated for a further four hours, shaken and absorbance measured at 450 nm using a Victor 3 multiwell plate reader (obtained from PerkinElmer, Inc.; Waltham, Mass.). Cell viability rate was calculated for each well as A450 treated cells/A450 control cells×100% (A450: OD value at 450 nm).

[2] = system: HCT116 WT cells; test: WST-1 cell proliferation assay; type: cell-based
Protocol: as §1, §2

[3] = system: HCT116 PTTG1−/− cells; test: Anchorage-dependent colony formation assay; type: cell-based; details: PTTG1−/− vs WT HCT116 cells
Protocol: Briefly, 20,000 cells were plated in a six-well culture dish, allowed to attach overnight and treated with depicted drug concentrations. Cells were cultured in standard culture medium containing indicated treatments for twelve days and medium re-freshened every three days. Colonies were stained with 0.5% crystal violet in methanol/acetic acid (3:1) and those composed of >50 cells were counted.

[4] = system: HCT116 PTTG1−/− cells; test: BrdU incorporation assay; type: cell-based
Protocol: The BrdU incorporation assay was carried out using a commercial kit. Briefly, culture cells in 96-well microplates in a final volume of 100 ul culture medium per well. After treatment, add 10 ul BrdU labeling solution per well (final concentration: 10 uM BrdU) and incubate for 2-18 h at 37° C. Carefully remove the culture medium and wash cells twice with 250 ul wash medium containing 10% serum per well. Cells fixed and treated with nucleases working solution for 30 min at 37° C. The incorporated BrdU is detected using anti-BrdU-POD, Fab fragments and peroxidase substrate ABTS. The absorbances of the samples are measured at 405 nm against the background control, using a Victor 3 multiwell plate reader.

[5] = system: Aurora Kinase A; details: Gadea and Ruderman, 2005; cited from earlier work
[6] = system: Aurora Kinase A; test: Western blot of siRNA knock down; type: cell-based; details: WT and PTTG1−/− cells
Protocol: Protein extracts were resolved by Nupage 4-12% Bis-Tris Gel (obtained from Invitrogen). Samples were electro-blotted onto PVDF membrane (obtained from Invitrogen), and membranes blocked and incubated with primary antibody. Donkey anti-rabbit- or anti-mouse (obtained from GE Healthcare; NJ) antibodies were conjugated to horseradish […] to reveal immunocomplexes by enhanced chemiluminescence (obtained from Thermo Scientific Pierce Protein Research Products).
Aurora Kinase A siRNA (AM51331, Sense: Described herein as SEQ. ID. NO.: 5; Antisense: Described herein as SEQ. ID. NO.: 6) and PTTG1 siRNA (16706, Sense: Described herein as SEQ. ID. NO.: 7; Antisense: Described herein as SEQ. ID. NO.: 8) were purchased from Ambion, Inc. (TX). Transfections were carried out with lipofectamine 2000 according to protocol.

[7] = target: T1, Aurora Kinase A (Homo sapiens, UniProt O14965); test: Protein microarray screening (Protoarray); type: binding; design: purchased Invitrogen Protoarray nc-v3; details: biotinylated PTTG1 probe
T1 sequence (O14965 1-403): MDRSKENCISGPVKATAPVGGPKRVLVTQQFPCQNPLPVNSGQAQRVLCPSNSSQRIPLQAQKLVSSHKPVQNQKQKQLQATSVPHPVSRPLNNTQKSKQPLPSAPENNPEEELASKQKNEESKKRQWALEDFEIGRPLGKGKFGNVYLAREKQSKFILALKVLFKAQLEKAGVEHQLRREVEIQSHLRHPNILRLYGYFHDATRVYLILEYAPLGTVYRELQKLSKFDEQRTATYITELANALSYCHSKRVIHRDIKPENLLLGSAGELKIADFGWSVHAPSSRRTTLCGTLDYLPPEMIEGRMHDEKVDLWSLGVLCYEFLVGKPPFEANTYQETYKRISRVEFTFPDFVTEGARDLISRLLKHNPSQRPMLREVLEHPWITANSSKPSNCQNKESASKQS
Protocol: (§3) FIG. 1 depicts that PTTG1 interacts with Aurora Kinase A, in accordance with an embodiment of the present invention. (A) PTTG1 was biotin-labeled and incubated with the protein microarray. Attached biotinylated PTTG1 was probed with Streptavidin-Alexa Fluor 647 conjugate. […] (B) Aurora Kinase A antibody was used to co-immunoprecipitate PTTG1, and PTTG1 antibody used to co-immunoprecipitate Aurora Kinase A respectively.
(§4) The human Protoarray nc3.0 study was performed as described by the manufacturer (obtained from Invitrogen Corporation; Carlsbad, Calif.). PTTG1 protein was biotinylated using biotin-XX sulfosuccinimidyl ester, purified by gel filtration, and assessed by Western blot. Appropriate protein aliquots were used to probe a protein microarray (Protoarray nc-v3; obtained from Invitrogen) and attached biotinylate PTTG1 was probed with Streptavidin-Alexa Fluor 647 conjugate. Arrays were scanned by GenePix 4000B (obtained from Molecular Devices Corporation; Sunnyvale, Calif.), and images analyzed using ProtoArray Prospector (Invitrogen).

[8] = target: T2, ribosomal protein S10 (Homo sapiens, UniProt P46783); test: Protein microarray screening (Protoarray); type: binding; details: biotinylated PTTG1 probe
T2 construct: purchased Invitrogen Protoarray nc-v3
Protocol: as §3, §4

[9] = target: T1, Aurora Kinase A; test: In vitro kinase activity assay (histone H3 Ser10 phosphorylation); type: biochemical; design: purchased Cell Signaling; details: PTTG1 0.5, 1, 2 μg
Text: FIG. 3 depicts that PTTG1 attenuates Aurora Kinase A function, in accordance with an embodiment of the present invention. (A) Over-expressed PTTG1 caused abnormal spindle formation as evidenced by unevenly distributed PTTG1-GFP and Aurora Kinase A (white arrows). (B) Western blot showing that over-expressed PTTG1 suppressed Aurora Kinase A T288 auto-phosphorylation and histone H3 Ser10 phosphorylation in HCT116 cells compared to controls. (C) Over-expressed PTTG1 repressed histone H3 Seri 0 phosphorylation as shown by immunofluorescence (white arrows). Scale bar=5 μm. (D) Degradation of mitotic proteins. HCT116 cells were synchronized with 400 ng/ml nocodazole for twelve hours and mitotic cells collected by shake-off, washed and cultured in fresh medium at 37° C. to allow progression of G2/M, and cells harvested at the indicated time points. […] (E) In vitro kinase assay. Aurora Kinase A, histone H3 and increasing PTTG1 or GST-His levels (0.5, 1, 2 μg) were brought to a 30 μl volume reaction system as described herein. After incubations at 37° C. for 20 minutes, reactions were halted and analyzed by Western blotting using histone H3 ser10 antibody. […]
Assays were performed using a modified Aurora kinase A assay kit obtained from Cell Signaling. […] Proteins were separated by standard SDS-PAGE and analyzed by Western blotting.

COc1cc2ncnc(Nc3ccc(NC(=O)c4ccccc4)cc3)c2cc1OC [Aurora Kinase Inhibitor II, 4-(4′-Benzamidoanilino)-6,7-dimethoxyquinazoline]
sensitivity of PTTG1−/− cell growth versus WT (WST-1) [1]: more susceptible than WT cells

O=C(Nc1cccc(Nc2nccc(Nc3cccc(C(F)(F)F)c3)n2)c1)C1CC1 [Aurora Kinase Inhibitor III, Cyclopropanecarboxylic acid-(3-(4-(3-trifluoromethyl-phenylamino)-pyrimidin-2-ylamino)-phenyl)-amide]
effect on the WT versus PTTG1−/− difference in response to doxorubicin [1]: abolished the different response
viability at 12.5 µM ([1]; Homo sapiens, HCT-116, PTTG1-null HCT116 cells, 12.5 uM for 48 h, read-out: cells remaining viable): 56%
sensitivity of PTTG1−/− cell growth versus WT (WST-1) [1]: more sensitive
viability at 12.5 µM ([2]; Homo sapiens, HCT-116, WT cells, 12.5 uM for 48 h, read-out: cells remaining viable): 73%
sensitivity of PTTG1−/− cells versus WT (colony formation) [3]: more sensitive

Nc1nc(Nc2ccc(S(N)(=O)=O)cc2)nn1C(=O)c1c(F)cccc1F [Aurora Kinase/CDK inhibitor, 4-(5-Amino-1-(2,6-difluorobenzoyl)-1H-[1,2,4]triazol-3-ylamino)-benzenesulfonamide]
sensitivity of PTTG1−/− cell growth versus WT (WST-1) [1]: more susceptible than WT cells

OO [H2O2]
sensitivity of PTTG1−/− cells to ROS-generating agents [4]: enhanced sensitivity

CC(=O)N[C@@H](CS)C(=O)O [N-acetyl cysteine (NAC), N-acetyl cysteine]
effect of ROS quencher on PTTG1−/− cell sensitivity to ROS-generating agents [4]: rescue PTTG1−/− cells sensitivity

S=C=NCCc1ccccc1 [PEITC, phenethyl isothiocyanate]
sensitivity of PTTG1−/− cells to ROS-generating agents [4]: enhanced sensitivity

COc1cc2c(Nc3ccc(NC(=O)c4ccccc4)cc3)ncnc2cc1OCCCN1CCOCC1 [ZM 447439]
effect on chromosome condensation and spindle [5]: retards progression of chromosome condensation, leading to a disorganized spindle

Aurora Kinase A siRNA: siRNA AM51331, SEQ. ID. NO.: 5 and 6, purchased from Ambion (chain 1 GGCAACCAGUGUACCUCAU; chain 2 AUGAGGUACACUGGUUGCC; chemistry not given here; listed as Homo sapiens)
Aurora Kinase A expression [6]: efficiently knocked down Aurora Kinase A expression
effect on the WT versus PTTG1−/− difference in response to doxorubicin [1]: abolished the differences
sensitivity of PTTG1−/− cell growth versus WT (WST-1) [1]: attenuated

PTTG1 siRNA: siRNA 16706, SEQ. ID. NO.: 7 and 8, purchased from Ambion (chain 1 GUCUGUAAAGACCAAGGGA; chain 2 UCCCUUGGUCUUUACAGAC; listed as RNA, chemistry not given here; listed as Homo sapiens)
effect of PTTG1 knock down on sensitivity to Aurora Kinase inhibitor III ([2]; WT HCT116 cells, inhibitor III 12.5 uM): increased HCT116 cell sensitivity

B1: PTTG1: pituitary tumor transforming gene protein (securin); His-PTTG1 expressed in insect cells, biotinylated for the array (protein, listed as Homo sapiens)
chain: MATLIYVDKENGEPGTRVVAKDGLKLGSGPSIKALDGRSQVSTPRFGKTFDAPPALPKATRKALGTVNRATEKSVKTKGPLKQKQPSFSAKKMTEKTVKAKSSVPASDDAYPEIEKFFPFNPLDFESFDLPEEHQIAHLPLSGVPLMILDEERELEKLFQLGPPSPVKMPSPPWESNLLQSPSSILSTLDVELPPVCCDIDI
modifications: His tag, biotinylated
notes: pituitary tumor transforming gene protein (securin); His-PTTG1 expressed in insect cells, biotinylated for the array
Z-score of interaction [7]: 4.90
Z-score of interaction [8]: 3.34
Aurora Kinase A phosphorylation of histone H3 [9]: dose-dependently inhibits
